PMC11648822, “Lactam Truncation Yields a Dihydroquinazolinone Scaffold with Potent Antimalarial Activity that Targets PfATP4” (Chemmedchem, 2024)

Target: T1, Dd2‐PfATP4^G358S (Plasmodium falciparum, UniProt A0A143ZZK9, G1128R/G358S)
T1 construct: We prepared membranes from Dd2‐Polδ‐PfATP4^G358S parasites (generated previously[22]); endogenous in cells; host or cells: P. falciparum Dd2-Polδ-PfATP4^G358S trophozoites (membrane preparation)
T1 sequence (A0A143ZZK9 1-1264 G358S/G1128R): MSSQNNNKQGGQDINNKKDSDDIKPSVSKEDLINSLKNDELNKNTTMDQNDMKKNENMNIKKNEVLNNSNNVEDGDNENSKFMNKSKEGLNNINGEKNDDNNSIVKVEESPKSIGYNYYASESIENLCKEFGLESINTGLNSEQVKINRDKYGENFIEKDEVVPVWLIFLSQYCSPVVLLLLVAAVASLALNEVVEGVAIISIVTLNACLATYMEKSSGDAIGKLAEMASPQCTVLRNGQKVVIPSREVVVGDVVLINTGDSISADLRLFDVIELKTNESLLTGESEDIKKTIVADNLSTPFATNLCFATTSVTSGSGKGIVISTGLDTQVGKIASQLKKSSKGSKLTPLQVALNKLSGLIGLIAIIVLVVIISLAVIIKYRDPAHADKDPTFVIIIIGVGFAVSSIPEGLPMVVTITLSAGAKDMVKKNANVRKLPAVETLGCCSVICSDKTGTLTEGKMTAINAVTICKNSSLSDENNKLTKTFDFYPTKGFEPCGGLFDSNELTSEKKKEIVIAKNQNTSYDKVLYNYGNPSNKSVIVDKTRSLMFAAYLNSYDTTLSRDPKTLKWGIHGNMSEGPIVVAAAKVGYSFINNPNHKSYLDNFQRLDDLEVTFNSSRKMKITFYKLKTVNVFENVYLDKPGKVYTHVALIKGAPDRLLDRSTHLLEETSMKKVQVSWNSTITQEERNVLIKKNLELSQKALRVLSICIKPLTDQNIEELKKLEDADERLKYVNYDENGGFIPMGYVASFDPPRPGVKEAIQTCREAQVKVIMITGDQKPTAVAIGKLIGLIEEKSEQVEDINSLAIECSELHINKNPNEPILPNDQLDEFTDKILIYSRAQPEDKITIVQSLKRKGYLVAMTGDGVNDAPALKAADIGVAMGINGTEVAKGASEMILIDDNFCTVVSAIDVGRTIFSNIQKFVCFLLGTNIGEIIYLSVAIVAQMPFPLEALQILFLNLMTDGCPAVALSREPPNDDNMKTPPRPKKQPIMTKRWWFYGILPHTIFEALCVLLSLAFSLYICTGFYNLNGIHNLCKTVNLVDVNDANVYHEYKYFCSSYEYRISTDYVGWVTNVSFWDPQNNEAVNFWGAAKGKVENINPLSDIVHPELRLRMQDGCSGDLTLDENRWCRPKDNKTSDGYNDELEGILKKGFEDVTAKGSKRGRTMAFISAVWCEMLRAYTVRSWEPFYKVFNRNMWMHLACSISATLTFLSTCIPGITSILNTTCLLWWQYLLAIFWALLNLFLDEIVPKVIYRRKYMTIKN
Test: PfATP4 Na+ assay (membrane ATPase), Dd2-Polδ-PfATP4^G358S membranes
Assay type: biochemical, P. falciparum
Conditions: membranes from Dd2-Polδ-PfATP4^G358S parasites
Method: Figure 4 Dihydroquinazolinone analogs 14 and 36 (WJM062) inhibit Na^+‐ATPase activity in membranes prepared from isolated P. falciparum parasites, consistent with them being PfATP4 inhibitors. (A) The effects of dihydroquinazolinone compounds (2 μM), dihydroartemisinin (DHA; 50 nM; negative control) and 0.2 % v/v DMSO (solvent‐only control) on membrane ATPase activity under high‐[Na^+] conditions (152 mM Na^+) and low‐[Na^+] conditions (2 mM Na^+; stemming from the addition of 1 mM Na2ATP) in the presence and absence of the PfATP4 inhibitor cipargamin (50 nM). The membranes were prepared from isolated trophozoite‐stage 3D7 parasites. The Pi produced is expressed as a percentage of that measured in the 152 mM Na^+ Control. The data are from four independent experiments performed with different membrane preparations; the symbols show the data from individual experiments and the bars show the mean (+SEM). In individual experiments, the Pi produced in the 152 mM Na^+ Control varied from 66 to 96 nmol per mg (total) protein per min. A repeated measures ANOVA with a post hoc Tukey test was used to compare the (pre‐normalised) data for different compounds and conditions. […] In B−D, the Pi production measured in the low‐[Na^+] (2 mM) condition was subtracted from that measured in high‐[Na^+] […] The PfATP4‐associated ATPase activity is expressed as a percentage of that obtained for the high‐[Na^+] […]

Structure (SMILES) | EC50
CN1C(=O)c2ccc(Cl)cc2NC1(C)C(=O)Nc1cncc(Cl)c1 (centres unmarked) [Compound 14, 7‐Chloro‐N‐(5‐chloro‐3‐pyridyl)‐2,3‐dimethyl‐4‐oxo‐1H‐quinazoline‐2‐carboxamide] | 12.1 nM
COc1cc(F)c2c(c1)NC(C)(C(=O)Nc1cncc(Cl)c1)N(C)C2=O (centres unmarked) [Compound 36, N‐(5‐Chloropyridin‐3‐yl)‐5‐fluoro‐7‐methoxy‐2,3‐dimethyl‐4‐oxo‐1,2,3,4‐tetrahydroquinazoline‐2‐carboxamide] | 11.6 nM
